Results: PMC11219871, “Epigenetic-based differentiation therapy for Acute Myeloid Leukemia” (Nature Communications, 2024)
Several values for one entry are separate records, joined by “and”; a condition that tells them apart may be missing. Equal values may be shown once.

Key:
HL-60 = experiment: Differentiation-apoptosis assay, CD11b / annexin-V / Sytox Green / myeloid markers flow cytometry; type: cell-based, human; parameters: Cell viability (%): concentration or dose not given beside the values; settings: for CD11b (%) / Cell viability (%): HL-60, 48 h treatment, replicates 1-3 (Suppl. Fig. 5A)
Protocol: Next, the cells were washed twice with phosphate-buffered saline (PBS) and resuspended in 1X Binding Buffer at a concentration of 1 × 10^6 cells/mL. […] Finally, after the addition of 400 µL of 1X Binding Buffer to each tube, samples were collected on a BD FACSCanto flow cytometer (Becton Dickinson, San Jose, CA, USA) and analyzed using FlowJo software.
Then, 1 million cells (volume of 250 µL) were added and incubated for 30 min at room temperature in darkness. After 10 min incubation at room temperature with 2 mL of FACSLysing 1X, cells were centrifuged at 540 g for 5 min and washed twice with FACSBuffer. Finally, after centrifugation at 540 g for 5 min cells were resuspended in FACSBuffer.

MV4-11 = experiment: as above; type: cell-based, human; parameters: Cell viability (%): concentration or dose not given beside the values; settings: MV4-11, 48 h treatment, replicates 1-3 (Suppl. Fig. 5A)
Protocol: Next, the cells were washed twice with phosphate-buffered saline (PBS) and resuspended in 1X Binding Buffer at a concentration of 1 × 10^6 cells/mL. An 8-µL aliquot of APC-CD11b (BD Pharmingen, Franklin Lakes, NJ, USA) and 1 µL of FITC annexin-V (AV) (BD Pharmingen, Franklin Lakes, NJ, USA) antibodies were added and incubated for 15 min at room temperature in the dark. Finally, after the addition of 400 µL of 1X Binding Buffer to each tube, samples were collected on a BD FACSCanto flow cytometer (Becton Dickinson, San Jose, CA, USA) and analyzed using FlowJo software.
For the rest of experiments, the mix of antibodies (2 µL of BV786-CD13, Cat No, 744748 BD; 1 µL of diluted 1:10 antibody of PB-HLADR, Cat No 307633, Biolegend; 5 µL of APCH7-CD14, Cat No 641394, BD) was added to 10 µL of Brilliant Stain Buffer Plus (Becton Dickinson, San Jose, CA, USA). Then, 1 million cells (volume of 250 µL) were added and incubated for 30 min at room temperature in darkness. After 10 min incubation at room temperature with 2 mL of FACSLysing 1X, cells were centrifuged at 540 g for 5 min and washed twice with FACSBuffer. Finally, after centrifugation at 540 g for 5 min cells were resuspended in FACSBuffer.

SMILES	CD11b (%) (HL-60)	Cell viability (%) (HL-60)	Annexin V (%) Replicate 1 (HL-60; HL-60, daily 25% GI50, 48 h)	Annexin V (%) Replicate 2 (HL-60; HL-60, daily 25% GI50, 48 h)	Annexin V (%) Replicate 3 (HL-60; HL-60, daily 25% GI50, 48 h)	CD11b (%) Replicate 1 (HL-60; HL-60, daily 25% GI50, 48 h)	CD11b (%) Replicate 2 (HL-60; HL-60, daily 25% GI50, 48 h)	CD11b (%) Replicate 3 (HL-60; HL-60, daily 25% GI50, 48 h)	CD11b (%) (MV4-11)	Cell viability (%) (MV4-11)
Cc1[nH]c2ccccc2c1CCNCc1ccc(/C=C/C(=O)NO)cc1 [Panobinostat, reference compound]	10.8% and 18.5%	45.2% and 38.6% and 44.9%	20.30%	24.90%	22.00%	12.07%	18.60%	12.38%	12.9% and 19.4% and 18.7%	38.3% and 43.2% and 44.2%
O=C(CCCCCCC(=O)Nc1ccccc1)NO [Vorinostat, reference compound]	30.8% and 39.8% and 27.7%	74.2% and 83.6% and 75%							15.2% and 20.7% and 19.4%	86.1% and 89% and 91%
